Results on 4 compounds are retold here after patent US11203739B2, “Modulating cell proliferation and pluripotency” (Memorial Sloan Kettering Cancer Center, priority 2014, dated 2021).

What all share (type): cell-based, mouse
Experiment [1] relates to ESC-1 cells. Kind of experiment: Colony formation (self-renewal) assay with alkaline phosphatase staining. The note with it: S/L medium, 4 mM, four days; for number of undifferentiated colonies: compared to S/L and the other treatment. The method, then: Self-renewal assays. ES cells free of feeder MEFs were plated at 100 cells per well in 6-well plates coated with 20 μg/mL mouse laminin (Stemgent 06-0002) in maintenance S/L medium. The following day media was changed to S/L experimental medium containing dimethyl-α-ketoglutarate (4 mM, Sigma 349631), dimethyl-succinate (4 mM, Sigma W239607) or DMSO vehicle control. Four days later cells were washed with PBS and stained for alkaline phosphatase using Vector Red Alkaline Phosphatase Kit (Vector Labs) according to manufacturer's instructions.

Experiment [2] has as its system ESC-1 cells. Kind of experiment: qRT-PCR gene expression of ICM and germline-associated genes. The note with it: for expression of ICM and germline-associated genes: ESC-1 cells, three days. The method, then: qRT-PCR. RNA was isolated using the RNeasy kit (Qiagen). After DNase treatment, 1-2 μg RNA was used for cDNA synthesis using the First-Strand Synthesis kit (Invitrogen). Quantitative RT-PCR analysis was performed in biological triplicate using an ABI Prism 7000 (Applied Biosystems) with Platinum SYBR green.
On the technique in general: Real-time PCR tracks product formation cycle by cycle.

A further experiment deals with ESC-V19 cells. As to the kind of experiment: Growth curves in glutamine-free medium. To be noted: glutamine-free S/L or 2i/L media, 4 mM DM-αKG. The method, then:
(§1) Cell culture. Maintenance media for ES cells were as follows: serum/LIF (S/L) maintenance medium contained Knockout DMEM (Gibco) supplemented with 15% ESC-qualified FBS (Gemini), penicillin/streptomycin (Life Technologies), 0.1 mM 2-mercaptoethanol, L-glutamine (2 mM, Life Technologies) and leukemia inhibitory factor (LIF) plated onto irradiated feeder mouse embryonic fibroblasts (MEFs); 2i/LIF maintenance conditions used a base medium made from a 1:1 mix of DMEM/F12 (Life Technologies 11302-033) and Neurobasal (Life Technologies 21103-049) containing N2 and B27 supplements (Life Technologies 17502-048 and 17504-044, 1:100 dilutions), penicillin/streptromycin, 0.1 mM 2-mercaptoethanol, L-glutamine (2 mM), LIF, CHIR99021 at 3 μM (Stemgent) and PD0325901 at 1 μM (Stemgent). Experimental media utilized for all experiments (except growth curves with and without glucose, ^13C isotope tracing experiments and ^14C labeling experiments) contained 1:1 mix of glutamine-free DMEM (Life Technologies 11960-051) and Neurobasal (Life Technologies 21103-049) with or without 2 mM glutamine. With the exception of 15% dialyzed FBS (Gemini 100-108) in S/L experimental medium, all other supplements were equivalent to maintenance media (S/L or 2i/L). […]
Growth curves. […] Cells were counted each day using a Beckman Coulter Multisizer 4.

Experiment [3] deals with ESC-1 cells. Kind of experiment: DNA methylation quantification (% 5mC). To be noted: S/L medium, 24 hours. The method, then:
DNA methylation. Genomic DNA was extracted from ESC samples using Puregene Core Kit A (Sigma). DNA methylation was measured using the colorimetric MethylFlash Methylated DNA quantification kit (Epigentek) according to manufacturer instructions.

For experiment [4], the system named is ESC-1 cells. Kind of experiment: Western blot of histone methylation in glutamine-free media with DM-αKG supplementation. To be noted: glutamine-free S/L or 2i/L media, 24 hours. Here is the method:
as §1
(In general: A western blot detects proteins with antibodies after separation by electrophoresis.)

Another experiment deals with Nanog-GFP ESCs. Kind of experiment: Nanog-GFP reporter FACS. To be noted: S/L medium, three days. The method, then:
FACS. Nanog-GFP ESCs^8 were cultured in S/L experimental medium for three passages and 2.5×10^4 cells were plated into a 6-well plate. Twenty-four hours later media was changed to S/L medium containing vehicle control or DM-AKG. Media was subsequently changed 48 hours later and cells harvested the following day. FACS analysis was performed at The Rockefeller University Flow Cytometry Resource Center using a BD LSR II. Data was generated using FlowJo. Analysis was performed on biological triplicates.

The test system of a further experiment is UTX and Jmjd3. Kind of experiment: Western blot of H3K27 methylation after GSK-J4 treatment. The note with it: ESC-1 cells in S/L, increasing amounts of GSK-J4, 24 hours. Here is the method: as §1
Experiment [5] relates to ESC-1 cells. Kind of experiment: GC-MS metabolite profiling, αKG:succinate ratio. To be noted: 1 μM or 5 μM, 3 hours; for αKG:succinate ratio: S/L or 2i/L medium. Here is the method: Metabolite profiling. For all metabolite experiments, cells were seeded in their standard culture medium in 6-well plates and the next day were changed into experimental medium. Medium was changed again at the indicated time before harvest (usually 1-24 hours). Metabolites were extracted with 1 mL ice-cold 80% methanol supplemented with 20 μM deuterated 2-hydroxyglutarate (D-2-hydroxyglutaric-2,3,3,4,4-d5 acid, d5-2HG) as an internal standard. After overnight incubation at −80° C., lysates were harvested and centrifuged at 21,000 g for 20 minutes to remove protein. Extracts were dried in an evaporator (Genevac EZ-2 Elite) and resuspended by incubation at 30° C. for 2 hours in 50 μL of 40 mg/mL methoxyamine hydrochloride in pyridine. Metabolites were further derivatized by addition of 80 μL of MSTFA +1% TCMS (Thermo Scientific) and 70 μl ethyl acetate (Sigma) and incubated at 37° C. for 30 minutes. Samples were analyzed using an Agilent 7890A GC coupled to Agilent 5975C mass selective detector. […] Peaks representing compounds of interest were extracted and integrated using MassHunter software (Agilent Technologies) and then normalized to both the internal standard (d5-2HG) peak area and protein content of duplicate samples as determined by BCA protein assay (Thermo Scientific). Ions used for quantification of metabolite levels are as follows: d5-2HG m/z 354; KG, m/z 304; aspartate, m/z 334; citrate, m/z 465; glutamate, m/z 363; malate, m/z 335 and succinate, m/z 247. […] Enrichment of ^13C was assessed by quantifying the abundance of the following ions: αKG, m/z 304-315; aspartate, m/z 334-346; citrate, m/z 465-482; glutamate, m/z 363-377 and malate, m/z 335-347. […] Flux was calculated as the product of the first order rate constant of the kinetic labeling curve and relative metabolite pool size (normalized to mean S/L values for each experiment)^5. The flux from glucose- and glutamine-derived carbons was calculated for each of three independent experiments and the average total flux for each metabolite was shown.

A further experiment concerns UTX/Jmjd3. As to the kind of experiment: H3K27me3 ChIP-PCR at bivalent domain promoters. To be noted: 30 μM, five hours. Here is the method: Chromatin immunoprecipitation. Native ChIP assays (histones) were performed with approximately 6×10^6 ESCs per experiment. Cells were subject to hypotonic lysis and treated with micrococcal nuclease to recover mono- to tri-nucleosomes. Nuclei were lysed by brief sonication and dialyzed into N-ChIP buffer (10 mM Tris pH 7.6, 1 mM EDTA, 0.1% SDS, 0.1% Na-Deoxycholate, 1% Triton X-100) for 2 hr at 4° C. Soluble material was incubated overnight at 4° C. following addition of 3-5 μg of antibody bound to 75 μL protein A Dynal magnetic beads (Invitrogen), with 5% kept as input DNA. Magnetic beads were washed, chromatin was eluted, and ChIP DNA was dissolved in 10 mM Tris pH 8 for quantitative PCR reactions (see below).
ChIP-qPCR. Primers are listed below. All qPCR was performed using an Applied Biosystems StepOnePlus system and Power SYBR Green PCR master mix. ChIP samples were diluted 1:100 in H2O and 5 μL used per reaction. ChIP-qPCR signals were calculated as percent input.

Entries after “also recorded” stand apart in the source; their conditions may differ.

Take `COC(=O)CCC(=O)OC` [DM-succinate, dimethyl-succinate]: in the experiment on ESC-1 cells [1], the predominant colony types result is given as “either mixed or differentiated”; the “number of undifferentiated colonies” value was “reproducible trend of fewer undifferentiated and more differentiated colonies”. In addition, the “expression of ICM and germline-associated genes” value in the experiment with ESC-1 cells [2] is listed as “not”.
As for `COC(=O)CCC(=O)C(=O)OC` [DM-αKG, dimethyl-α-ketoglutarate], the glutamine-independent proliferation entry in the experiment on ESC-V19 cells was “sufficient to enable glutamine-independent proliferation in both S/L and 2i/L conditions”. For the same compound, the “total DNA methylation (% 5mC)” value in the experiment with ESC-1 cells [3] is “reduced”. Further, in the experiment on ESC-1 cells [1], the “colony staining and morphology (brightfield images)” value is “stained brighter and retained a more compact colony morphology”; the “number of undifferentiated colonies” value was “more than double the number of fully undifferentiated colonies; also recorded: more undifferentiated colonies than vehicle or DM-succinate treated wells”. In addition, the “H3K27me3 and H4K20me3 levels (Western blot)” value in the experiment with ESC-1 cells [4] was “reversed the increase in H3K27me3 and H4K20me3”. The “effects on gene expression in Tet1/Tet2 double knockout ES cells” value with ESC-1 cells [2] (72 hours) is listed as “largely abrogated in Tet1/Tet2 double knockout ES cells”. The “expression of ICM and germline-associated genes” value in the experiment on ESC-1 cells [2] is “induced expression of ICM and germline-associated genes”. The “effects on gene expression upon extended passaging” value in the experiment on ESC-1 cells [2] (S/L medium, 24 hours or four passages) is given as “persisted upon extended passaging”. Moreover, in the experiment on Nanog-GFP ESCs, the “Nanog expression detected by GFP fluorescence” value is recorded as “sufficient to enhance Nanog expression in a dose-dependent manner”.
Consider `CCOC(=O)CCNc1cc(N2CCc3ccccc3CC2)nc(-c2ccccn2)n1` [GSK-J4], for which, in the experiment on UTX and Jmjd3, the “H3K27me1 level (Western blot)” value was “concomitant reduction of H3K27me1” and the “H3K27me3 level (Western blot)” value is listed as “dose-dependent increase in H3K27me3”. Also, in the experiment on ESC-1 cells [5], the “absolute and relative increase in the αKG:succinate ratio, 2i/L compared with S/L” value was “more pronounced in the cells grown in 2i/L medium”; the “αKG:succinate ratio” value was “triggered increases in the αKG:succinate ratio”. Moreover, the “H3K27me3 at bivalent domain promoters” value in the experiment on UTX/Jmjd3 (ESC-1 cells in 2i/L medium) is on record as “consistent increase in H3K27me3 at bivalent domain promoters”. Moreover, in the experiment with UTX/Jmjd3 (ESC-1 cells in S/L medium), the “H3K27me3 at bivalent domain promoters” value is “did not change”.
Consider `CCOC(=O)CCNc1cc(N2CCc3ccccc3CC2)nc(-c2cccnc2)n1` [GSK-J5], for which the “αKG:succinate ratio” value in the experiment with ESC-1 cells [5] is given as “had no effect”.
